Results published in PMC5681660, “Reduced hepatitis B and D viral entry using clinically applied drugs as novel inhibitors of the bile acid transporter NTCP” (Scientific Reports, 2017).
Where a name gives a salt, the structure may show the parent alone.

Target: T1, human NTCP (Homo sapiens, UniProt Q14973)
T1 sequence (Q14973 1-349): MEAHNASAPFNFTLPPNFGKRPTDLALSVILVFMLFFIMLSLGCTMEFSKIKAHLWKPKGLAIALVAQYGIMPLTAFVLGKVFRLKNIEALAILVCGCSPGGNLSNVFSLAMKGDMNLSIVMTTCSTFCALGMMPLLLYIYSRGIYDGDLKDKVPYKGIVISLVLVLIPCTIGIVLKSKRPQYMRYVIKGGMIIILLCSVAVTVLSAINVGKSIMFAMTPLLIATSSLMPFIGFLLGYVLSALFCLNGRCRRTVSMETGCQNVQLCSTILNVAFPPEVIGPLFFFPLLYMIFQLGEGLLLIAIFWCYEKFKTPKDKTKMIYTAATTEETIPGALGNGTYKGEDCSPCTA
Assay: Screening taurocholate uptake assay (96-well, [14C]taurocholate, 10 µM drug)
Details: for B-score functional assay: screening taurocholate uptake, 10 µM drug

[1] = combined ranking of functional and binding screening assays
[2] = ranking over the functional and the binding screening assay

| SMILES | Ranking score [1] | B-score functional assay | Ranking score [2] | B-score functional assay (B-score) |
| --- | --- | --- | --- | --- |
| CC(Oc1c(Cl)cccc1Cl)C1=NCCN1 (stereo not shown) [Lofexidine] | 633.467 | -0.33 | – | – |
| N[C@@H](C(=O)N[C@@H]1C(=O)N2C(C(=O)O)=C(Cl)CC[C@H]12)c1ccccc1 [Loracarbef] | 611.882 | -0.686 | – | – |
| CCOC(=O)N1CCC(=C2c3ccc(Cl)cc3CCc3cccnc32)CC1 [Loratadine] | – | -3.222 | 78.3326 | – |
| CCCCCN(CCCCC)C(=O)C(CCC(=O)[O-])NC(=O)c1ccc(Cl)c(Cl)c1.[Na+] (stereo not shown) [Lorglumide sodium salt] | – | -3.59 | 164.012 | – |
| CCOC(=O)O[C@]1(C(=O)OCCl)CC[C@H]2[C@@H]3CCC4=CC(=O)C=C[C@]4(C)[C@H]3[C@@H](O)C[C@@]21C [Loteprednol etabonate] | – | -2.765 | 211.225 | – |
| CC[C@H](C)C(=O)O[C@H]1C[C@@H](C)C=C2C=C[C@H](C)[C@H](CC[C@@H]3C[C@@H](O)CC(=O)O3)[C@H]21 [Lovastatin] | – | -0.084 | 175.818 | – |
| O=c1cc(-c2ccc(O)c(O)c2)oc2cc(O)cc(O)c12 [Luteolin] | 585.624 | -0.024 | – | – |
| CN(C)[C@@H]1C(O)=C(C(=O)NCNCCCC[C@H](N)C(=O)O)C(=O)[C@@]2(O)C(O)=C3C(=O)c4c(O)cccc4[C@@](C)(O)[C@H]3C[C@@H]12 [Lymecycline] | 591.633 | 0.716 | – | – |
| CCN(CCCCOC(=O)c1ccc(OC)c(OC)c1)C(C)Cc1ccc(OC)cc1 (stereo not shown) [Mebeverine hydrochloride] | 474.181 | -0.512 | – | – |
| C=C1c2c(Cl)ccc(O)c2C(=O)C2=C(O)[C@]3(O)C(=O)C(C(N)=O)=C(O)[C@@H](N(C)C)[C@@H]3[C@@H](O)[C@H]12.O=C(O)c1cc(S(=O)(=O)O)ccc1O [Meclocycline sulfosalicylate] | 647.296 | 0.486 | – | – |
| Cc1cccc(CN2CCN(C(c3ccccc3)c3ccc(Cl)cc3)CC2)c1.Cl.Cl (stereo not shown) [Meclozine dihydrochloride] | 482.469 | -1.455 | – | – |
| Cc1cccc(Nc2ccccc2C(=O)O)c1C [Mefenamic acid] | – | -1.919 | 180.289 | – |
| CNC[C@H](O)[C@@H](O)[C@H](O)[C@H](O)CO [Meglumine] | – | -3.271 | 72.6498 | – |
| C[N+]1(C)CCCC(OC(=O)C(O)(c2ccccc2)c2ccccc2)C1 (stereo not shown) [Mepenzolate bromide] | 545.72 | 1.196 | – | – |
| Cc1cccc(C)c1NC(=O)C1CCCCN1C (stereo not shown) [Mepivacaine hydrochloride] | – | -0.918 | 206.427 | – |
| CCC1(c2cccc(O)c2)CCCCN(C)C1 (stereo not shown) [Meptazinol hydrochloride] | 474.66 | -1.3 | – | – |
| O=C([O-])c1ccccc1-c1c2cc(Br)c(=O)cc-2oc2[c]([Hg+])c([O-])c(Br)cc12.[Na+].[Na+].[OH-] [Merbromin] | – | -0.374 | 82.365 | – |
| O=S(=O)(O)CCS [Mesna] | – | -1.329 | 127.75 | – |
| C[C@H](N)[C@H](O)c1cccc(O)c1 [Metaraminol bitartrate] | – | 0.952 | 141.58 | – |
| CN1C[C@H](CNC(=O)OCc2ccccc2)C[C@@H]2c3cccc4c3c(cn4C)C[C@H]21 [Metergoline] | – | -0.571 | 269.388 | – |
| CC(=O)OC(C)C[N+](C)(C)C (stereo not shown) [Methacholine chloride] | 628.097 | 0.496 | – | – |

| SMILES | Ranking score [1] | B-score functional assay | Ranking score [2] | B-score functional assay (B-score) |
| --- | --- | --- | --- | --- |
| C=C1c2cccc(O)c2C(=O)C2=C(O)[C@]3(O)C(=O)C(C(N)=O)=C(O)[C@@H](N(C)C)[C@@H]3[C@@H](O)[C@H]12 [Methacycline hydrochloride] | – | 0.118 | 244.434 | – |
| CC[N+](C)(CC)CCOC(=O)C1c2ccccc2Oc2ccccc21 [Methantheline bromide] | 536.517 | -0.025 | – | – |
| COC(=O)Nc1nc2ccc(SC(C)C)cc2[nH]1 [Methiazole] | – | -0.825 | 275.739 | – |
| COc1ccccc1OCC(O)COC(N)=O (stereo not shown) [Methocarbamol] | 504.159 | -0.493 | – | – |
| COc1ccc(OC)c(C(O)C(C)N)c1 (stereo not shown) [Methoxamine hydrochloride] | 647.236 | -0.662 | – | – |
| CN1CCCC(CC2c3ccccc3Sc3ccccc32)C1 (stereo not shown) [Metixene hydrochloride] | 516.538 | 0.08 | – | – |
| CCN(CC)CCNC(=O)c1cc(Cl)c(N)cc1OC.Cl [Metoclopramide monohydrochloride] | 1141.61 | – | – | 0.859 |
| Cc1cccc(C)c1OCC(C)N (stereo not shown) [Mexiletine hydrochloride] | 487.63 | -0.898 | – | – |
| Clc1ccc(COC(Cn2ccnc2)c2ccc(Cl)cc2Cl)c(Cl)c1 (stereo not shown) [Miconazole] | – | -2.763 | 240.998 | – |
| CC#C[C@]1(O)CC[C@H]2[C@@H]3CCC4=CC(=O)CCC4=C3[C@@H](c3ccc(N(C)C)cc3)C[C@@]21C [Mifepristone] | – | -2.267 | 246.499 | – |
| OCCN1C[C@H](O)[C@@H](O)[C@H](O)[C@H]1CO [Miglitol] | 510.427 | -1.145 | – | – |
| Nc1cc(N2CCCCC2)nc(N)[n+]1[O-] [Minoxidil] | – | -3.894 | 87.241 | – |
| CN1CCN2c3ncccc3Cc3ccccc3C2C1 (stereo not shown) [Mirtazapine] | 576.426 | 0.174 | – | – |
| NC(=O)C[S+]([O-])C(c1ccccc1)c1ccccc1 (stereo not shown) [Modafinil] | 485.699 | 2.253 | – | – |
| CCOC(=O)[N-]c1cn(N2CCOCC2)n[o+]1 [Molsidomine] | 467.403 | 0.63 | – | – |
| C[C@@H]1C[C@H]2[C@@H]3CCC4=CC(=O)C=C[C@]4(C)[C@@]3(Cl)[C@@H](O)C[C@]2(C)[C@@]1(OC(=O)c1ccco1)C(=O)CCl [Mometasone furoate] | – | -0.4 | 101.489 | – |
| CC[C@@]1([C@H]2O[C@H]([C@H]3O[C@@](O)(CO)[C@H](C)C[C@@H]3C)C[C@H]2C)CC[C@H]([C@@]2(C)CC[C@]3(C[C@H](O)[C@@H](C)[C@@H]([C@H](C)[C@H](OC)[C@@H](C)C(=O)[O-])O3)O2)O1.[Na+] [Monensin sodium salt] | – | -1.407 | 257.93 | – |
| Oc1ccc(OCc2ccccc2)cc1 [Monobenzone] | 560.227 | -0.057 | – | – |
| CC(C)(O)c1ccccc1CC[C@@H](SCC1(CC(=O)O)CC1)c1cccc(/C=C/c2ccc3ccc(Cl)cc3n2)c1 [Montelukast] | – | -3.762 | 55.3173 | – |
| CCOC(=O)Nc1ccc2c(c1)N(C(=O)CCN1CCOCC1)c1ccccc1S2 [Moricizine hydrochloride] | 1215.96 | – | – | 2.078 |
